For test [1], the system named is Rat PMNL. Description: Superoxide Anion (SOA) Production by rat PMNL. It counts as cell-based. The following applies: for inhibition of superoxide anion production: PMA and OZ induced; for inhibition at 1 µM / inhibition at 3 µM / inhibition at 10 µM / inhibition at 30 µM / inhibition at 100 µM / inhibition at 300 µM: Rattus norvegicus, PMNL. On the procedure:
(§1) Rat PMNL were obtained from exudates resulting from peritoneal injection of 6 mL of 8% sodium caseinate. Eighteen hours after injection rats were killed by carbon dioxide inhalation and the peritoneal cavity lavaged with Hank's balanced salt solution (HBSS). After concentration of the PMNL by centrifugation, contaminating erythrocytes were removed by hypotonic lysis. The PMNL were then washed twice by centrifugation (400×g for 10 minutes) and resuspended in HBSS. Cell viability was greater than 90% by Trypan Blue exclusion and greater than 90% of the cells were PMNL by Wright-Giemsa stain.
Aliquots (50 μl) of a rat PMNL suspension (2×10^7 cells/mL in HBSS) were incubated with 50 μl of HBSS containing vehicle (0.3% DMSO) or compound for 30 minutes at 37° C. as above. One hundred microliters of buffer containing 5.98 mg/mL of cytochrome C (Sigma Type III) and 0.1 mg/mL catalase, plus the compounds where appropriate, were then added to each sample. A blank for spectrophotometric measurement, containing unstimulated cells in the presence of cytochrome C, catalase and SOD, was also prepared. To activate the PMNL, 75 μl of PMA or OZ were added to achieve the final concentration of cell activator (plus vehicle or inhibitor as described above for MPO release) and the cells further incubated at 37° C. for 60 minutes. The activation was terminated by centrifugation at 600×g for 5 minutes at 4° C. Aliquots (200 μl) of supernatant were then transferred to a second, flat-well microtiter plate and measured spectrophotometrically at 550 nm. […]

In test [2] the test system is Rat PMNL (intracellular calcium). Put plainly: Measurement of Intracellular Calcium (Fura-2) in fMLP-stimulated rat PMNL. The class given is cell-based. The following applies: for suppression of the second wave of intracellular calcium changes: fMLP-stimulated PMNL, preincubation with compound, FIG. 1. On the procedure:
as §1
Intracellular calcium levels were obtained using Fura-2 as fluorescent indicator (Grynkiewicz et al., 1985). Fura-2 was loaded into PMNL as the acetoxymethyl ester (Fura-2/AM) using the method of Korchak et al., (1988). Specifically, 1×10^8 PMNL/mL were incubated in HBSS with 10 μM Fura-2/AM for 10 minutes at 37° C. The cells suspension was then diluted ten fold with HBSS and further incubated for another 20 minutes. The cells were then centrifuged (400×g for 8 minutes at 25° C.) and the PMNL (1×10^7 cells/mL) resuspended in HBSS containing 1% bovine serum albumin. Cells were stored at room temperature and used within 3 hours.
Intracellular calcium level determinations were made using a dual wavelength spectrofluorometer (Photon Technology International, New Brunswick, N.J.). Two mL of PMNL suspension (1×10^7 cells/mL) were stirred magnetically at 37° C. Cells were preincubated with the compounds for 15 minutes at 37° C. prior to activation. Where compounds were dissolved in DMSO and added directly, the DMSO never exceeded 0.3% in the final cell suspension. Total change in volume with addition of compounds or vehicle and stimuli never exceeded 3%. Intracellular calcium concentrations were calibrated by setting a maximum calcium level in the cells with the addition of 7 uM ionomycin to PMNL in HBSS containing 1% BSA. This was followed by treatment with 20 mM EGTA for 1 hour to obtain a minimum calcium level. […]
On the technique in general: Calcium flux is commonly read through the fluorescence of an indicator in the cells.

[3] abbreviates: PMA, read-out: PMA/SOA inhibition.
The mark [4] stands for this setting: opsonized zymosan, read-out: OZ/SOA inhibition.

Like-named read-outs stand apart in the source and are kept apart here.

Regarding `O=C(C=Cc1ccncc1)c1ccccc1` [MDL 29,355, 1-phenyl-3-(4-pyridinyl)-2-propene-1-one], in test [1], the “inhibition of superoxide anion production” value is given as “inhibited in a dose dependent fashion”. In addition, in test [1] (setting [3]), the inhibition at 1 µM was -29.5%, the inhibition at 3 µM is -30.2%, the inhibition at 10 µM is -20.7% and the inhibition at 30 µM is -12.3%. Further, in test [1] (setting [3]), the inhibition at 100 µM is 21.1% and the inhibition at 300 µM was determined as 104%. Besides, in test [1] (setting [4]), the inhibition at 1 µM was -10.7%, the inhibition at 3 µM is -12.6%, the inhibition at 10 µM was 2.5% and the inhibition at 30 µM was 27.5%. Further, in test [1] (setting [4]), the inhibition at 100 µM came out at 67.6% and the inhibition at 300 µM is 102%. The “suppression of the second wave of intracellular calcium changes” value in test [2] is recorded as “selective concentration-dependent suppression of the second wave of intracellular calcium changes”.

On to `CN(C)c1ccc(C(=O)C=Cc2ccncc2)cc1` [MDL 101,240, 1-(4-dimethylaminophenyl)-3-(4-pyridinyl)-2-propene-1-one], for which the “inhibition of superoxide anion production” value in test [1] is reported as “inhibited in a dose dependent fashion”. Moreover, in test [1] (setting [3]), the inhibition at 1 µM was -7.2%, the inhibition at 3 µM stood at 4.7%, the inhibition at 10 µM came out at 5.9% and the inhibition at 30 µM stood at 34.5%. The inhibition at 100 µM in test [1] (setting [3]) came out at 81.5%. Moreover, in test [1] (setting [4]), the inhibition at 1 µM was -7.8%, the inhibition at 3 µM was 2.5%, the inhibition at 10 µM came to 21.3% and the inhibition at 30 µM turned out to be 66.3%. The inhibition at 100 µM in test [1] (setting [4]) is 85%. The “relative inhibition of the second phase (calcium uptake)” value in test [2] (MDL 101,240 vs MDL 29,355, fMLP stimulus) is “stronger inhibition for MDL 101,240 than for MDL 29,355”. Besides, in test [2], the “suppression of the second wave of intracellular calcium changes” value is “selective concentration-dependent suppression of the second wave of intracellular calcium changes”.

(Values after patent US5500429A, “Calcium uptake inhibitors” (Merrell Pharmaceuticals Inc., priority 1993, dated 1996).)
